Measurements: patent publication US5262417A, “Antibacterial quinolone compounds” (The Upjohn Company, priority 1991, dated 1993)
Converted amounts (≈) assume the structure as drawn. Read-outs that look alike come from different tables or passages of the source.

Assays:
Experiment in all cases: Minimum inhibitory concentration (MIC) by agar dilution
Type in all cases: cell-based
Escherichia coli = details: Escherichia coli
Description: (§1) The antibacterial activity of the compounds of Formula IC was determined by using standard testing procedures such as the determination of minimum inhibitory concentration (MIC) by agar dilution as described in "Methods for Dilution Antimicrobial Susceptibility Tests for Bacteria That Grow Aerobically" (MFT) published January 1983 by the National Committee for Clinical Laboratory Standards, 771 East Lancaster Avenue, Villanova, Pa. 19084, USA. Briefly, MIC values are determined in unsupplemented Mueller Hinton Agar (MHA). The compounds tested are diluted serially into molten MHA at 47° C. The agar is poured into petri dishes and allowed to harden. The various bacteria used for testing are grown overnight on MHA at 35° C. and transferred to Trypticase soy broth (TSB) until a turbidity of 0.5 McFarland standard is obtained. The bacteria are diluted one to 20 in TSB and inoculated on the plates (1 μl using a Steers replicator).
as §1, with “Compounds of this invention can also be tested for in vitro antimicrobial” for “The antibacterial”, “activity” for “activity of the compounds of Formula IC was determined by”, “Jan.” for “January”, “Penna.” for “Pa.”, “(1μl” for “(1 μl”, “replicator). […] The MIC test results of selected of Formula B compounds of this invention are found in Tables B2-B9.” for “replicator).”

Staphylococcus aureus = details: Staphylococcus aureus
Description: as §1
as §1, with “Compounds of this invention can also be tested for in vitro antimicrobial” for “The antibacterial”, “activity” for “activity of the compounds of Formula IC was determined by”, “Jan.” for “January”, “Penna.” for “Pa.”, “(1μl” for “(1 μl”, “replicator). […] The MIC test results of selected of Formula B compounds of this invention are found in Tables B2-B9.” for “replicator).”

Klebsiella pneumoniae = test system: Klebsiella pneumoniae
Description: as §1
as §1, with “Compounds of this invention can also be tested for in vitro antimicrobial” for “The antibacterial”, “activity” for “activity of the compounds of Formula IC was determined by”, “Jan.” for “January”, “Penna.” for “Pa.”, “(1μl” for “(1 μl”, “replicator). […] The MIC test results of selected of Formula B compounds of this invention are found in Tables B2-B9.” for “replicator).”

Pseudomonas aeruginosa = details: Pseudomonas aeruginosa
Description: as §1
as §1, with “Compounds of this invention can also be tested for in vitro antimicrobial” for “The antibacterial”, “activity” for “activity of the compounds of Formula IC was determined by”, “Jan.” for “January”, “Penna.” for “Pa.”, “(1μl” for “(1 μl”, “replicator). […] The MIC test results of selected of Formula B compounds of this invention are found in Tables B2-B9.” for “replicator).”

[1] = test system: Acinetobacter calcoaceticus; details: Acinetobacter calcoaceticus
Description: as §1
as §1, with “Compounds of this invention can also be tested for in vitro antimicrobial” for “The antibacterial”, “activity” for “activity of the compounds of Formula IC was determined by”, “Jan.” for “January”, “Penna.” for “Pa.”, “(1μl” for “(1 μl”, “replicator). […] The MIC test results of selected of Formula B compounds of this invention are found in Tables B2-B9.” for “replicator).”

Serratia marcescens = details: 20 h, read-out: MINIMUM INHIBITORY CONCENTRATION
Description: as §1
as §1, with “Compounds of this invention can also be tested for in vitro antimicrobial” for “The antibacterial”, “activity” for “activity of the compounds of Formula IC was determined by”, “Jan.” for “January”, “Penna.” for “Pa.”, “(1μl” for “(1 μl”, “replicator). […] The MIC test results of selected of Formula B compounds of this invention are found in Tables B2-B9.” for “replicator).”

Citerobacter freundii = test system: Citerobacter freundii
Description: as §1
as §1, with “Compounds of this invention can also be tested for in vitro antimicrobial” for “The antibacterial”, “activity” for “activity of the compounds of Formula IC was determined by”, “Jan.” for “January”, “Penna.” for “Pa.”, “(1μl” for “(1 μl”, “replicator). […] The MIC test results of selected of Formula B compounds of this invention are found in Tables B2-B9.” for “replicator).”

Streptococcus pyogenes = details: Streptococcus pyogenes
Description: as §1
as §1, with “Compounds of this invention can also be tested for in vitro antimicrobial” for “The antibacterial”, “activity” for “activity of the compounds of Formula IC was determined by”, “Jan.” for “January”, “Penna.” for “Pa.”, “(1μl” for “(1 μl”, “replicator). […] The MIC test results of selected of Formula B compounds of this invention are found in Tables B2-B9.” for “replicator).”

Streptococcus faecalis = details: Enterococcus faecalis
Description: as §1
as §1, with “Compounds of this invention can also be tested for in vitro antimicrobial” for “The antibacterial”, “activity” for “activity of the compounds of Formula IC was determined by”, “Jan.” for “January”, “Penna.” for “Pa.”, “(1μl” for “(1 μl”, “replicator). […] The MIC test results of selected of Formula B compounds of this invention are found in Tables B2-B9.” for “replicator).”

[2] = test system: Staphylococcus epidermidis; details: 20 h
Description: as §1
as §1, with “Compounds of this invention can also be tested for in vitro antimicrobial” for “The antibacterial”, “activity” for “activity of the compounds of Formula IC was determined by”, “Jan.” for “January”, “Penna.” for “Pa.”, “(1μl” for “(1 μl”, “replicator). […] The MIC test results of selected of Formula B compounds of this invention are found in Tables B2-B9.” for “replicator).”

Proteus penneri = details: Proteus penneri
Description: as §1
as §1, with “Compounds of this invention can also be tested for in vitro antimicrobial” for “The antibacterial”, “activity” for “activity of the compounds of Formula IC was determined by”, “Jan.” for “January”, “Penna.” for “Pa.”, “(1μl” for “(1 μl”, “replicator). […] The MIC test results of selected of Formula B compounds of this invention are found in Tables B2-B9.” for “replicator).”

Streptococcus pneumoniae = details: Streptococcus pneumoniae
Description: as §1
as §1, with “Compounds of this invention can also be tested for in vitro antimicrobial” for “The antibacterial”, “activity” for “activity of the compounds of Formula IC was determined by”, “Jan.” for “January”, “Penna.” for “Pa.”, “(1μl” for “(1 μl”, “replicator). […] The MIC test results of selected of Formula B compounds of this invention are found in Tables B2-B9.” for “replicator).”

Enterobacter cloacae = test system: Enterobacter cloacae
Description: Briefly, MIC values are determined in unsupplemented Mueller Hinton Agar (MHA). The compounds tested are diluted serially into molten MHA at 47° C. The agar is poured into petri dishes and allowed to harden. The various bacteria used for testing are grown overnight on MHA at 35° C. and transferred to Trypticase soy broth (TSB) until a turbidity of 0.5 McFarland standard is obtained. The bacteria are diluted one to 20 in TSB and inoculated on the plates (1 μl using a Steers replicator).
as §1, with “Compounds of this invention can also be tested for in vitro antimicrobial” for “The antibacterial”, “activity” for “activity of the compounds of Formula IC was determined by”, “Jan. […]” for “January 1983 by the National Committee for Clinical Laboratory Standards, 771 East Lancaster Avenue, Villanova, Pa. 19084, USA.”, “(1μl” for “(1 μl”

[3] = 20 h, read-out: MINIMUM INHIBITORY CONCENTRATION

O=C(O)c1cn(C23CC(C2)C3)c2c(F)c(N3CCC(O)C3)c(F)cc2c1=O (stereo not drawn) [No. 3, 7-(3-hydroxy-1-pyrrolidinyl)-1-(bicyclo[1.1.1]pent-1-yl)-1,4-dihydro-6,8-difluoro-4-oxo-3-quinolinecarboxylic acid]
MIC (Escherichia coli; 20 h, read-out: MINIMUM INHIBITORY CONCENTRATION, Cult No. 6674, MHA): 0.25 µg/mL (≈ 0.664 µM) | MIC (Escherichia coli; 20 h, read-out: MINIMUM INHIBITORY CONCENTRATION, Cult No. 9451, MHA): 0.25 µg/mL (≈ 0.664 µM) | MIC (Escherichia coli; 20 h, read-out: MINIMUM INHIBITORY CONCENTRATION, Cult No. 9855, MHA): 0.25 µg/mL (≈ 0.664 µM) | MIC (Escherichia coli; 20 h, read-out: MINIMUM INHIBITORY CONCENTRATION, Cult No. 9952, MHA): 0.125 µg/mL (≈ 0.332 µM) | MIC (Staphylococcus aureus; 20 h, read-out: MINIMUM INHIBITORY CONCENTRATION, Cult No. 6685, MHA): 0.06 µg/mL (≈ 0.159 µM) | MIC (Staphylococcus aureus; 20 h, read-out: MINIMUM INHIBITORY CONCENTRATION, Cult No. 9213, MHA): 0.125 µg/mL (≈ 0.332 µM) | MIC (Staphylococcus aureus; 20 h, read-out: MINIMUM INHIBITORY CONCENTRATION, Cult No. 9218, MHA): 0.125 µg/mL (≈ 0.332 µM) | MIC (Staphylococcus aureus; 20 h, read-out: MINIMUM INHIBITORY CONCENTRATION, Cult No. 9271, MHA): 0.125 µg/mL (≈ 0.332 µM) | MIC (Klebsiella pneumoniae; [3]): 0.5 µg/mL (≈ 1.33 µM) | MIC (Pseudomonas aeruginosa; 20 h, read-out: MINIMUM INHIBITORY CONCENTRATION, Cult No. 6676, MHA): 2 µg/mL (≈ 5.31 µM) | MIC (Pseudomonas aeruginosa; 20 h, read-out: MINIMUM INHIBITORY CONCENTRATION, Cult No. 9191, MHA): 2 µg/mL (≈ 5.31 µM) | MIC (Pseudomonas aeruginosa; 20 h, read-out: MINIMUM INHIBITORY CONCENTRATION, Cult No. 12120, MHA): 1 µg/mL (≈ 2.66 µM) | MIC ([1]; 20 h, read-out: MINIMUM INHIBITORY CONCENTRATION, Cult No. 12170, MHA): 0.25 µg/mL (≈ 0.664 µM) | MIC (Serratia marcescens): 1 µg/mL (≈ 2.66 µM) | MIC (Citerobacter freundii; [3]): 0.25 µg/mL (≈ 0.664 µM) | MIC (Streptococcus pyogenes; 20 h, read-out: MINIMUM INHIBITORY CONCENTRATION, Cult No. 152, MHA): 2 µg/mL (≈ 5.31 µM) | MIC (Streptococcus faecalis; [3]): 1 µg/mL (≈ 2.66 µM) | MIC ([2]; read-out: MINIMUM INHIBITORY CONCENTRATION): 0.125 µg/mL (≈ 0.332 µM) | MIC (Proteus penneri; 20 h, read-out: MINIMUM INHIBITORY CONCENTRATION, Cult No. 9679, MHA): 0.5 µg/mL (≈ 1.33 µM) | MIC (Streptococcus pneumoniae; 20 h, read-out: MINIMUM INHIBITORY CONCENTRATION, Cult No. 41, MHA): 1 µg/mL (≈ 2.66 µM) | MIC (Enterobacter cloacae; [3]): 0.25 µg/mL (≈ 0.664 µM)

C#CCn1cc(C(=O)O)c(=O)c2cc(F)c(N3CCNCC3)c(F)c21.CS(=O)(=O)O [C, (+,-)-6,8-difluoro-1,4-dihydro-4-oxo-7-(1-piperazinyl)-1-(2-propynyl)-3-quinolinecarboxylic acid methanesulfonate]
MIC (Escherichia coli; UC6674, 20 h, read-out: Minimum Inhibitory Concentration, E. coli UC 6674, Table CI): 1 µg/mL | MIC (Escherichia coli; UC9451, 20 h, read-out: Minimum Inhibitory Concentration, E. coli UC 9451, Table CI): 2 µg/mL | MIC (Escherichia coli; UC9855, 20 h, read-out: Minimum Inhibitory Concentration, E. coli UC 9855, Table CI): 2 µg/mL | MIC (Escherichia coli; UC9952, 20 h, read-out: Minimum Inhibitory Concentration, E. coli UC 9952, Table CI): 1 µg/mL | MIC (Staphylococcus aureus; UC6685, 20 h, read-out: Minimum Inhibitory Concentration, S. aureus UC 6685, Table CI): 32 µg/mL | MIC (Staphylococcus aureus; UC9213, 20 h, read-out: Minimum Inhibitory Concentration, S. aureus UC 9213, Table CI): 32 µg/mL | MIC (Staphylococcus aureus; UC9218, 20 h, read-out: Minimum Inhibitory Concentration, S. aureus UC 9218, Table CI): 32 µg/mL | MIC (Staphylococcus aureus; UC9271, 20 h, read-out: Minimum Inhibitory Concentration, S. aureus UC 9271, Table CI): 32 µg/mL | MIC (Klebsiella pneumoniae; UC12081, 20 h, read-out: Minimum Inhibitory Concentration): 2 µg/mL | MIC (Pseudomonas aeruginosa; UC6676, 20 h, read-out: Minimum Inhibitory Concentration, Ps. aeruginosa UC 6676, Table CI): 16 µg/mL | MIC (Pseudomonas aeruginosa; UC9191, 20 h, read-out: Minimum Inhibitory Concentration, Ps. aeruginosa UC 9191, Table CI): 8 µg/mL | MIC (Pseudomonas aeruginosa; UC12120, 20 h, read-out: Minimum Inhibitory Concentration, Ps. aeruginosa UC 12120, Table CI): 8 µg/mL | MIC ([1]; UC12170, 20 h, read-out: Minimum Inhibitory Concentration, A. calcoaceticus UC 12170, Table CI): 8 µg/mL | MIC (Serratia marcescens): 0.25 µg/mL | MIC (Citerobacter freundii; Citrobacter freundii, UC3507, 20 h, read-out: Minimum Inhibitory Concentration): 1 µg/mL | MIC (Streptococcus pyogenes; UC152, 20 h, read-out: Minimum Inhibitory Concentration, S. pyogenes UC 152, Table CI): 32 µg/mL | MIC (Streptococcus faecalis; UC9217, 20 h, read-out: Minimum Inhibitory Concentration): > 64 µg/mL | MIC ([2]; read-out: Minimum Inhibitory Concentration): 16 µg/mL | MIC (Proteus penneri; UC9679, 20 h, read-out: Minimum Inhibitory Concentration, P. penneri UC 9679, Table CI): 1 µg/mL | MIC (Streptococcus pneumoniae; UC41, 20 h, read-out: Minimum Inhibitory Concentration, S. pneumoniae UC 41, Table CI): > 64 µg/mL | MIC (Enterobacter cloacae; UC9382, 20 h, read-out: Minimum Inhibitory Concentration): 1 µg/mL
